One test deals with A549. As to the kind of experiment: CCK-8 cell viability assay and IC50 measurement. The test is classed as cell-based, human. As to conditions: Homo sapiens; for viability at 40 µM / inhibition at 40 µM: A549, 40 μM, 48 h; for viability at 40 µM: CCK-8, read-out: Cell viability (100%), 40 μM, 48 h, A549; for inhibition at 40 µM: read-out: inhibition rate. Here is the method:
(§1) In order to investigate the anticancer activity of new synthetic 1,4-benzoxazinone-linked 1,2,3-triazole compounds, we chose several cancer cell lines, including A549 (lung), Huh7 (liver), MCF-7 (breast), HCT-116 (colon), and SKOV3 (ovary), and measured cell viability using the CCK-8 assay. Cells were exposed to 40 μM of the compounds for 48 h, and then cell viability was determined. […] In addition, we used the reference drug gefitinib as a positive control and measured its cell viability on different cell lines. […] We used BEAS-2B cells as a normal cell line to determine the toxic effects of these compounds on normal cells. […] Furthermore, we evaluated the IC50 of these compounds in A549.
(§2) Human cancer cell lines A549, Huh7, MCF-7, HCT-116, and SKOV3 were obtained from ATCC. The cells were cultured in DMEM or RPMI 1640 medium supplemented with 10% FBS and 1% penicillin/streptomycin and incubated at 37°C in a CO2-humidified atmosphere.
(§3) Cells were cultured in DMEM or RPMI 1640 medium containing 10% FBS and 1% penicillin/streptomycin at 37°C and 5% CO2. The CCK-8 assay was performed on several human cancer cell lines, including A549, Huh7, MCF-7, HCT-116, and SKOV3, according to the manufacturer’s instructions. Cells were plated at a density of 5 × 10^3 cells per well in a 96-well plate. After 24 h of incubation, cells were treated with 40 μM compounds for 48 h. Cell viability was assessed by adding 10 μL of CCK-8 reagent, dissolved in the cell culture medium, and incubating for 1 h. Absorbance was measured at 450 nm using a microplate reader. IC50 values were determined using a dose-response curve with six concentrations (0, 10, 20, 40, 80, and 160 μM), and IC50 values were calculated using GraphPad Prism software.
(Tetrazolium dyes change colour on reduction, which living cells bring about.)

Another test deals with HCT-116. As to the kind of experiment: CCK-8 cell viability assay. The test is classed as cell-based. As to conditions: Homo sapiens, HCT-116, 40 μM, 48 h, read-out: Cell viability (100%), 40 μM, 48 h, HCT-116. The procedure:
as §1, §2, §3

The subject of another test is Huh7. As to the kind of experiment: CCK-8 cell viability assay. The test is classed as cell-based. The conditions noted are these: Homo sapiens, Huh-7, Huh7, 40 μM, 48 h, read-out: Cell viability (100%), 40 μM, 48 h, Huh7. The procedure: as §1, §2, §3
The subject of another test is MCF-7. As to the kind of experiment: CCK-8 cell viability assay. As to conditions: Homo sapiens, MCF7, MCF-7, 40 μM, 48 h, read-out: Cell viability (100%), 40 μM, 48 h, MCF-7. The test is classed as cell-based. Here is the method: as §1, §2, §3
For the next test, the system named is SKOV3. As to the kind of experiment: CCK-8 cell viability assay. The test is classed as cell-based. The conditions noted are these: Homo sapiens, SK-OV-3, SKOV3, 40 μM, 48 h, read-out: Cell viability (100%), 40 μM, 48 h, SKOV3. The procedure:
as §1, §2, §3

For test [1], the system named is A549 cells. As to the kind of experiment: Annexin V-FITC/PI apoptosis quantification by flow cytometry. The test is classed as cell-based, human. The conditions noted are these: 48 h. The procedure: We used these two compounds to clarify this function and explore the underlying mechanism. To investigate whether the new compound could induce cell apoptosis, A549 cells were exposed to different concentrations of 14b and 14c for 48 h. The cells were then stained with Annexin V-FITC and propidium iodide (PI). The Annexin V-FITC/PI staining was performed to quantify the percentage of apoptotic cells by flow cytometry.
A549 cells were exposed to different concentrations of 14b and 14c (5 μM, 10 μM, and 20 μM) for 48 h. Cells were collected and stained with Annexin V-FITC and PI, and apoptotic cells were measured by flow cytometry. Data are presented as mean ± SEM, *P < 0.05.
A549 cells were plated at a density of 3 × 10^5 cells per well in a six-well plate. Compounds at concentrations of 0, 5, 10, or 20 μM were added to the cells for 48 h. Cells were then collected, washed with PBS, and stained with Annexin V-FITC and propidium iodide for 20 min. Apoptotic cells were quantified using a flow cytometer, and the data were further analyzed using FlowJo software.
On the technique in general: A flow cytometer gives signals particle by particle.

Test [2] relates to A549 cells. As to the kind of experiment: Calcein AM/PI live/dead viability assay. Format: cell-based, human. The conditions noted are these: 24 h. The procedure: To investigate the role of 14b and 14c in regulating cell proliferation and death, A549 cells were treated with different concentrations of compounds for 24 h, and the live/dead cell numbers were then observed by staining with calcein AM and propidium iodide.
FIGURE 4 Compound 14b and 14c increased dead cells and decreased live cells. (A–B) A549 cells were treated with different concentrations of 14b and 14c (5 μM, 10 μM, and 20 μM) for 24 h (C–D) BEAS-2B cells were treated with different concentrations of 14b and 14c (5 μM, 10 μM, and 20 μM) for 24 h. Live and dead cell numbers were stained with calcein in AM and PI, respectively, and cells were observed by confocal microscopy. Data are presented as mean ± SEM, *P < 0.05.
The live/dead viability assay was performed using the Calcein/PI Live/Dead Viability Assay Kit. A549 cells were plated at a density of 5 × 10^3 cells per well in a 96-well plate and allowed to adhere overnight. Compounds were then added at concentrations of 0, 5, 10, or 20 μM for 24 h. After replacing the medium with fresh culture medium containing Calcein AM and propidium iodide, the cells were incubated for 30 min at 37°C in the dark. Live and dead cells were observed and photographed using a confocal microscope.

Test [3] relates to A549 cells. As to the kind of experiment: DNA damage staining (γ-H2AX antibody and DAPI). Format: cell-based, human. The conditions noted are these: A549, 5, 10, and 20 μM, 24 h. Here is the method: In order to further verify the effects of 2H-1,4-benzoxazin-3(4H)-one linked 1,2,3-triazole derivatives on DNA damage, A549 cells were treated with different doses (5, 10, and 20 μM) of compounds 14b and 14c. After 24-h treatment, cells were stained with γ-H2AX antibody and DAPI, cell nuclei were stained blue, and DNA-damaged cells were stained green. Using confocal microscopy, cells were observed and photographed.
A549 cells were seeded at a density of 2 × 10^3 cells per well in 96-well plates. Cells were treated with different concentrations (0, 5, 10, 20, and 30 μM) of the compounds for 24 h. DNA damage was assessed using a DNA damage detection kit. The cell nuclei were stained blue, while DNA-damaged cells were stained green. Cells were then observed and photographed using a fluorescence microscope.

Setting [4] is: A549, 48 h, read-out: IC50 48 h.
The mark [5] stands for this setting: A549, 72 h, read-out: IC50 72 h.

Read-outs that look alike come from different tables or passages of the source.

In the case of `O=C1COc2ccc(NC(=O)c3cccc(-c4cn(-c5cccc(Br)c5)nn4)c3)cc2N1` [Compound 14b], the half-maximal inhibitory concentration (IC50) (commonly the concentration at which inhibition is half-maximal) in the test with A549 (setting [4]) was found to be 25.1 ± 4.62 µM; in the test on A549 (setting [5]), 7.59 ± 0.31 µM. The viability (usually a read-out of living cells in per cent, often relative to untreated cells) at 40 µM in the test with A549 came out at 27 ± 0.98%; in the test on HCT-116 it was 125 ± 2.78%; in the test with Huh7 it was 123 ± 2.08%; in the test with MCF-7, 114 ± 1.68%; in the test with SKOV3, 98.02 ± 0.87%. Further, in the test on A549, the inhibition (usually the relative decrease from the control value, in per cent) at 40 µM was greater than 50%. The “percentage of early and late apoptotic cells” value in the test on A549 cells [1] (A549, 5 μM) worked out at 13.92%; with A549 cells [1] (A549, 10 μM) it was 25.85%; with A549 cells [1] (A549, 20 μM) it was 49.04%. The Dead cells result with A549 cells [2] (A549, 5 μM) was “increased”; in the test on A549 cells [2] (A549, 10 μM and 20 μM), “greatly and largely increased”. For the same molecule, the Live cells entry in the test on A549 cells [2] (A549, different concentrations (5, 10, 20 μM)) is “consistently decreased”. In the test with A549 cells [3], the “DNA damage (γ-H2AX staining)” value is reported as “significantly led to DNA damage in a concentration-dependent manner”.
Consider `O=C1COc2ccc(NC(=O)c3cccc(-c4cn(-c5ccccc5F)nn4)c3)cc2N1` [Compound 14c], for which the values for the IC50 in the test with A549 (setting [4]) and in the test on A549 (setting [5]) were 24.1 ± 3.83 µM and 18.5 ± 0.59 µM, respectively. Besides, the viability at 40 µM with A549 was 22.6 ± 0.88%; in the test on HCT-116, 65.3 ± 4.55%; in the test on Huh7, 125 ± 1.53%; with MCF-7, 110 ± 2.45%; in the test on SKOV3, 57.2 ± 4.16%. In addition, the inhibition at 40 µM in the test on A549 was greater than 50%. For the same molecule, the “percentage of early and late apoptotic cells” value in the test with A549 cells [1] (A549, 5 μM) worked out at 12.57%; in the test with A549 cells [1] (A549, 10 μM), 27.21%; with A549 cells [1] (A549, 20 μM), 72.02%. In addition, in the test on A549 cells [2] (A549, 5, 10, 20 μM), the “live/dead cell numbers compared with compound 14b” value is given as “The same results were also observed”. In addition, in the test with A549 cells [3], the “DNA damage (γ-H2AX staining)” value is listed as “significantly led to DNA damage in a concentration-dependent manner”.
